Experimental data reported in ChEMBL document CHEMBL1201862, “PubChem BioAssay data set” (2004).
The source made the active and inactive calls.

Assays:
[1] = target: Albumin (Bos taurus, UniProt P02769); assay: Counterscreen for inhibitors of T-cell receptor (TCR)-CD3 interaction: Fluorescence-based biochemical high throughput dose response assay to identify inhibitors of T-cell receptor (TCR)-CD3 interaction using a TAMRA-labeled BSA probe.; format: functional
[2] = target: T1, Galanin receptor type 3 (Homo sapiens, UniProt O60755); assay: Fluorescence-based cell-based primary high throughput dose response assay to identify antagonists of the Galanin Receptor 3 (GalR3).; format: functional
T1 sequence (O60755 whole entry): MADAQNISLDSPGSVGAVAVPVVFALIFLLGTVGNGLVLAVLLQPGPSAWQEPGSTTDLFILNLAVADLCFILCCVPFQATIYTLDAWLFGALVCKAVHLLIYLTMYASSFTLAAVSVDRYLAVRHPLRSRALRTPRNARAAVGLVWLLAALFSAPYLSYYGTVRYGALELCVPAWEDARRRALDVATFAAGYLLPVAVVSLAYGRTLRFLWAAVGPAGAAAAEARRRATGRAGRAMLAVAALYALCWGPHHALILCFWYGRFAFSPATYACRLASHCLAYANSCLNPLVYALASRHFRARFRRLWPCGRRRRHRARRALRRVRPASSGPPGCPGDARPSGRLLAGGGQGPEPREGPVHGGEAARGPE

[3] = cells; format: functional, cell-based; conditions: HEK-CNG
[4] = NIH-3T3 fibroblast cytotoxicity, dose response, cytotoxicity control, cell-based, fluorescence, Alamar Blue, secondary assay (AID 2327); format: functional;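 further: NIH-3T3 mouse fibroblasts cultured with fluconazole at 8 µg/mL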
[5] = target: T2, Aminopeptidase N (Plasmodium falciparum FcB1/Columbia, UniProt O96935); assay: malaria alanyl aminopeptidase activity blockers – biochemical, fluorogenic H-Leu-NHMec substrate, 1536-well (AID 1445); design: species or system Plasmodium falciparum 3D7, 3D7
T2 sequence (O96935 whole entry): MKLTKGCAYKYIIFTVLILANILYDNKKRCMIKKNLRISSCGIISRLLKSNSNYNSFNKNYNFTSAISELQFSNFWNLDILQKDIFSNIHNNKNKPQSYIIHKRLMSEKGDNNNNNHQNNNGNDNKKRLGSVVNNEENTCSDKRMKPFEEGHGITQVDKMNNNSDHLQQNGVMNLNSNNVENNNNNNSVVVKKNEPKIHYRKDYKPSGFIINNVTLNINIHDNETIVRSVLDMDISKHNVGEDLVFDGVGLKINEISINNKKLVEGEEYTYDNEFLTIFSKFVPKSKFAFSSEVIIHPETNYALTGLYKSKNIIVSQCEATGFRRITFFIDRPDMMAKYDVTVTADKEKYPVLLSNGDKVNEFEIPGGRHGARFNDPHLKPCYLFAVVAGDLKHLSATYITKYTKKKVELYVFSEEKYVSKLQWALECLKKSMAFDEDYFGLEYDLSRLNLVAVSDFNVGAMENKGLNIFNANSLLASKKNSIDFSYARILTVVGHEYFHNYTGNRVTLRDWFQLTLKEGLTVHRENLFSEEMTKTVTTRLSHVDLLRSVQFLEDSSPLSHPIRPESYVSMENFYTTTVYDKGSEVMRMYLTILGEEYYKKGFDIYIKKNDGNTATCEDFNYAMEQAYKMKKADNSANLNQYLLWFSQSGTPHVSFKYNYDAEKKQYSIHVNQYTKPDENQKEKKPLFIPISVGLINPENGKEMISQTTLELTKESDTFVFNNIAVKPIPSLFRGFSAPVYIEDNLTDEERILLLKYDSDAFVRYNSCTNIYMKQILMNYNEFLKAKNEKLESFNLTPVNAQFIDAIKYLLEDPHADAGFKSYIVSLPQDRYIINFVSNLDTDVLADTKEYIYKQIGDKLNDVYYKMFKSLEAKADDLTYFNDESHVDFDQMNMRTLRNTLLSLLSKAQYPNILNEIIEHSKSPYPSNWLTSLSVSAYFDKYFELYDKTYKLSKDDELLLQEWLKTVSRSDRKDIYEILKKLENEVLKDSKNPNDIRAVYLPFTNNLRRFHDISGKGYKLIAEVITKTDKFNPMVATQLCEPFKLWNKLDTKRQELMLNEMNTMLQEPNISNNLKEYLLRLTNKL

[6] = tested on: Streptococcus sp. 'group A'; assay: Streptococcus pyogenes SK(-)GAS viability under kanamycin – luminescence, BacTiterGlo, confirmation, counter-screen for streptokinase expression inhibitor project, dose response (AID 1900); format: functional, organism-based
[7] = target: T3, Streptokinase A (Streptococcus pyogenes serotype M1, UniProt P10520); assay: viability-normalized secreted streptokinase activity reduction – plasminogen activation absorbance, OD405, dose response (AID 1914); format: functional, Streptococcus pyogenes M1 GAS;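 further: secreted streptokinase activity via plasminogen activation per viability signal from cell pellet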
T3 sequence (P10520 whole entry): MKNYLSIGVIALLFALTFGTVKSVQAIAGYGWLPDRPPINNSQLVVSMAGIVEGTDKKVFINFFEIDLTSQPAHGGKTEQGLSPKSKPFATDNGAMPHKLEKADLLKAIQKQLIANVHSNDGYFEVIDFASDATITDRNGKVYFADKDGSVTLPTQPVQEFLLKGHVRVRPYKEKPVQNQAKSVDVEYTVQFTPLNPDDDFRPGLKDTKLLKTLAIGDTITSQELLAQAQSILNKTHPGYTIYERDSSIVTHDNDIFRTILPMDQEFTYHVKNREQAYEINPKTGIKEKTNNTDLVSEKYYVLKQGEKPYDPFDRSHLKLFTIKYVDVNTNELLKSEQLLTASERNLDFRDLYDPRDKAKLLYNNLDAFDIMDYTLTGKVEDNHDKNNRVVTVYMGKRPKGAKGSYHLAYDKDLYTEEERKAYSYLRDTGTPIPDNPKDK

[8] = fluconazole-exposed Candida albicans growth modulators – fluorescence, retest, confirmation (AID 2467); format: functional, cell-based
[9] = tested on: Streptococcus; assay: GAS UMAA2166 growth inhibition – luminescence, BacTiterGlo, counter-screen for streptokinase expression inhibitor project, dose response (AID 1915); format: functional, organism-based;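 further: potency for reduction of bacterial viability or growth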
[10] = target: Eukaryotic translation initiation factor 4E (Mus musculus, UniProt P63073); assay: blockers of eIF4G binding by eIF4E – biochemical, TR-FRET, dose response (AID 855); format: functional;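 further: potency for disrupting eIF4E binding to eIF4GI seen as loss of FRET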
Eukaryotic translation initiation factor 4E, sequence (P63073 whole entry): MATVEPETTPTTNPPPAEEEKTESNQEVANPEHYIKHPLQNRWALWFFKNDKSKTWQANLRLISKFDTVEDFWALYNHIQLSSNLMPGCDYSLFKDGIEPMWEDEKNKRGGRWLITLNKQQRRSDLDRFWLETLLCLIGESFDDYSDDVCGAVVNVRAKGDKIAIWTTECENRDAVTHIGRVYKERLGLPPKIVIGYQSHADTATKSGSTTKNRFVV

[11] = target: T4, High affinity choline transporter 1 (Homo sapiens, UniProt Q9GZV3); assay: human choline transporter blockers, potency – cell-based, 5-point CRC, membrane potential dye, dose response (AID 504840); format: functional
T4 sequence (Q9GZV3 whole entry): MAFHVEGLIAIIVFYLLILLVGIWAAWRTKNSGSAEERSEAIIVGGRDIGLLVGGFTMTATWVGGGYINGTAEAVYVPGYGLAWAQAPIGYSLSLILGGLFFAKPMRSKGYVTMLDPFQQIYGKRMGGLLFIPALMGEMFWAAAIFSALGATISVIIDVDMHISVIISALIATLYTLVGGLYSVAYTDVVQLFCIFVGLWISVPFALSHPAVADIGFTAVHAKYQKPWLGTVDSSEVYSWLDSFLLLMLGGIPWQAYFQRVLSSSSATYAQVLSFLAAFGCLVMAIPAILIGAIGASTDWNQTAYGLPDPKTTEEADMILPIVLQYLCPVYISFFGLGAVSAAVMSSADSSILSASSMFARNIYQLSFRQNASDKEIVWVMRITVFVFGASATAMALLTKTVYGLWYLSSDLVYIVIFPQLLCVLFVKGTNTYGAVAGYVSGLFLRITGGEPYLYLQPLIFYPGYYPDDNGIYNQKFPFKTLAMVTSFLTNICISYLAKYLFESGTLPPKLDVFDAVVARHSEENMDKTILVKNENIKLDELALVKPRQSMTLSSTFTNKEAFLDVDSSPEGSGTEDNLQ

[12] = target: T5, Long-chain-fatty-acid--AMP ligase FadD28 (Mycobacterium tuberculosis, UniProt P9WQ59); assay: Fluorescence polarization aasay to screen for inhibitors that compete for the binding of FadD28 to a bisubstrate Measured in Biochemical System Using Plate Reader - 2147-01_Inhibitor_Dose_CherryPick_Activity.; format: functional, Mycobacterium tuberculosis H37Rv
T5 sequence (P9WQ59 whole entry): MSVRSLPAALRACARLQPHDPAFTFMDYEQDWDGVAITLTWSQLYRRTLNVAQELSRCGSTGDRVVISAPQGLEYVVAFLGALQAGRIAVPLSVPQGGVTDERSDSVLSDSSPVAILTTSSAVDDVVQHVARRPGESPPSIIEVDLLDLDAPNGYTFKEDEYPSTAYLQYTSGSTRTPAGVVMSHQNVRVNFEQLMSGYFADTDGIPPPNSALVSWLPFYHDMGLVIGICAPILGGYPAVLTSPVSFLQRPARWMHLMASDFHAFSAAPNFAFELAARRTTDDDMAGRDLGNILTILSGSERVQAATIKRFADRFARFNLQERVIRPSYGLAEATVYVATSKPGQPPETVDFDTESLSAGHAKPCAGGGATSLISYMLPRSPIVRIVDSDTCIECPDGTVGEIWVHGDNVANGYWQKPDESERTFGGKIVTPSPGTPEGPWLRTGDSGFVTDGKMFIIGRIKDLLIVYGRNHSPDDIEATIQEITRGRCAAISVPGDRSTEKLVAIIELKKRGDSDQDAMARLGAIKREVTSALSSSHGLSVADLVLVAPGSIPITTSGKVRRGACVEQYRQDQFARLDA

[13] = target: Induced myeloid leukemia cell differentiation protein Mcl-1 (Homo sapiens, UniProt Q07820); format: functional
Induced myeloid leukemia cell differentiation protein Mcl-1, sequence (Q07820 whole entry): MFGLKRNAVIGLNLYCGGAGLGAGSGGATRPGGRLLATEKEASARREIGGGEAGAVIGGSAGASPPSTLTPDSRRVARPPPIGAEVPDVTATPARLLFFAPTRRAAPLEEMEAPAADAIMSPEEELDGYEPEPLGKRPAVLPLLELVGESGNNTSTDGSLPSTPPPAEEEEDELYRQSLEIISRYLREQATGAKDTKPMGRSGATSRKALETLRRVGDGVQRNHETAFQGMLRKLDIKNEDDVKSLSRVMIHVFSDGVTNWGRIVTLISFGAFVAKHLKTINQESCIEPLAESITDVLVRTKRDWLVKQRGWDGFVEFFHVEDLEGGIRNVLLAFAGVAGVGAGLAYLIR

[14] = target: T6, Mannose-6-phosphate isomerase (Homo sapiens, UniProt P34949); assay: MPI inhibition at elevated mannose 6-phosphate – biochemical, fluorescence intensity, high mannose 6-phosphate, primary screen (AID 1220)
T6 sequence (P34949 whole entry): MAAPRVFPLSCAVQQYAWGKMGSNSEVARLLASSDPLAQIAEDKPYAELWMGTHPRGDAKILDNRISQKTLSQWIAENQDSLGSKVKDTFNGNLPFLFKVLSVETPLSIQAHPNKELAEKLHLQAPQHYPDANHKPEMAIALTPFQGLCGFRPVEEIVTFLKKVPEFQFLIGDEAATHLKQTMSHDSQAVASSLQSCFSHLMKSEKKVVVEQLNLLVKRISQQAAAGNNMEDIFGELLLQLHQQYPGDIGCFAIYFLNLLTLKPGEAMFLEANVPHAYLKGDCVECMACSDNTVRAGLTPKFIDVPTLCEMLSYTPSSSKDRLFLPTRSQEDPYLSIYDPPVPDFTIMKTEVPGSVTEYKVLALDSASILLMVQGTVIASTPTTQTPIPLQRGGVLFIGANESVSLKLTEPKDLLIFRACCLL

[15] = target: Genome polyprotein (dengue virus type 2, UniProt P29990); assay: flavivirus cap methylation enzyme inhibition – biochemical, confirmation dose response, primary screen (AID 588689); format: functional
Genome polyprotein, sequence (P29990 2492-3391 limits assumed): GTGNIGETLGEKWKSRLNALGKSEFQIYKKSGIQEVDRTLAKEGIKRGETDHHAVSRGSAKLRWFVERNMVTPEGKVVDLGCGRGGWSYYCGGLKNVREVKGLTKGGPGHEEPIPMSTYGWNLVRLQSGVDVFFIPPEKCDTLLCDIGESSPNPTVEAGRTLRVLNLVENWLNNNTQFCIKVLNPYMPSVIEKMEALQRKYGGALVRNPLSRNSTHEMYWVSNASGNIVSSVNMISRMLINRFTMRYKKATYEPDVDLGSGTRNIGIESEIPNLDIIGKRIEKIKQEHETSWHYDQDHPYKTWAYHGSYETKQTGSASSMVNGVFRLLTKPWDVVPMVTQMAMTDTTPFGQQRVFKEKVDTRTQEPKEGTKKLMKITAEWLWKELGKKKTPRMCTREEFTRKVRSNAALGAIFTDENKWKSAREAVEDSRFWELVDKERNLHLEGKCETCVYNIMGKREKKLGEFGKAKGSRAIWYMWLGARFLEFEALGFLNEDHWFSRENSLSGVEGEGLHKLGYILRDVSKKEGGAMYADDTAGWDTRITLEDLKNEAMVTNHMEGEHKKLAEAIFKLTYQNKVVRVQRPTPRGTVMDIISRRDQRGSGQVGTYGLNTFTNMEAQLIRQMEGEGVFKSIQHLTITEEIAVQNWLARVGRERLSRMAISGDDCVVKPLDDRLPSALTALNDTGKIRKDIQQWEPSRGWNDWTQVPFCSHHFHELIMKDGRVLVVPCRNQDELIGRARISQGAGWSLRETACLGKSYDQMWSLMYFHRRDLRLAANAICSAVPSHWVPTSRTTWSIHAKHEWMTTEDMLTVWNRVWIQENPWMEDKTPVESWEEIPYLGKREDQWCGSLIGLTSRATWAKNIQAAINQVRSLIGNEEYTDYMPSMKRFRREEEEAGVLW

[16] = target: T7, Caspase-6 (Homo sapiens, UniProt P55212); assay: inhibition of CASP6 peptide cleavage – biochemical, VEID-R110 fluorescence, cherry-pick, dose response (AID 720632)
T7 sequence (P55212 whole entry): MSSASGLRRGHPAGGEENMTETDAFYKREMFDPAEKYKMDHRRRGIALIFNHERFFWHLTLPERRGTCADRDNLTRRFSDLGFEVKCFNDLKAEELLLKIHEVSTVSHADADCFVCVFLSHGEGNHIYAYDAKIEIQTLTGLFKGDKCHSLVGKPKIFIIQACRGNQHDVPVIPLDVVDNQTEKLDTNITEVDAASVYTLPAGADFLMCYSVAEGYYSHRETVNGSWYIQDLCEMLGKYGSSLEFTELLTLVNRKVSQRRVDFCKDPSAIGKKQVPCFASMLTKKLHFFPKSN

Albumin, sequence (P02769 whole entry): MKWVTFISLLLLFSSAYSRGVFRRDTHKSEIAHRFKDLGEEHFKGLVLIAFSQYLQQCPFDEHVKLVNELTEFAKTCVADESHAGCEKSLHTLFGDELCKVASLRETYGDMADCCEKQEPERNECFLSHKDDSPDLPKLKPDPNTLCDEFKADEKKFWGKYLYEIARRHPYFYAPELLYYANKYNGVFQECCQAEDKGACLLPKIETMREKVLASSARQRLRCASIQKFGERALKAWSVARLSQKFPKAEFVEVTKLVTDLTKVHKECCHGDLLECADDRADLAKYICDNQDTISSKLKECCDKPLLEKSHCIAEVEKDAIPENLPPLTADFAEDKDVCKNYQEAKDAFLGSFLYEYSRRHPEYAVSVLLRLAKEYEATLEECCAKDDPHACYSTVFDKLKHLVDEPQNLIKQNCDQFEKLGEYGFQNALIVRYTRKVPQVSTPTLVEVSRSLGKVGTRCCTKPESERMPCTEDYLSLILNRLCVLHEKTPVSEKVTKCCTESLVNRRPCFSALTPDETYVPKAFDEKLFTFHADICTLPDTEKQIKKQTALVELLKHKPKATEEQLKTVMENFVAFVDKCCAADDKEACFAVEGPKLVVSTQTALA

Cc1cc(C)c2c(N)c(C(=O)NN)sc2n1
IC50 [1]: > 94.1 µM (inactive)

O=C(COc1ccc(C(=O)c2ccccc2)cc1)Nc1cccnc1
IC50 [2]: 399 nM (active) | EC50 [3]: > 29.9 µM (inactive)

O=[N+]([O-])c1cc(Br)c(O)c(/C=N/Nc2nnnn2-c2cccc3ccccc23)c1
EC50 [4]: > 150 µM (inconclusive) | IC50 [5]: 6.79 µM (active) | EC50 [6]: 3.69 µM (active) | EC50 [7]: > 150 µM (not active) | EC50 [8]: > 38 µM (not active) | EC50 [9]: > 150 µM (not active) | IC50 [10]: > 64 µM (inactive) | IC50 [11]: 30.2 µM (active) | AC50 [12]: 15.6 µM (active) | IC50 [1]: > 94.1 µM (inactive)

O=C(CCN1CCN(c2ccccc2)CC1)N/N=C/c1ccc(O)c(O)c1O
EC50 [4]: > 150 µM (inactive) | EC50 [8]: 3.04 µM (active) | IC50 [13]: 6.59 µM (active) | IC50 [14]: > 50 µM (not active) | IC50 [15]: 30.1 µM (active) | IC50 [1]: > 94.1 µM (inactive) | AC50 [16]: 1.11 µM (active)
